Experiment [1] deals with primary microglial cultures. The experiment is described as follows: LPS stimulated TNF-α release, ELISA. The experiment is classed as cell-based, rat. The following applies: TNF-α by ELISA. The method, then: (§1) FIG. 2 is a graph illustrating that sigma receptor activation reduces LPS-induced cytotoxin production. […] Nitric oxide levels were quantified using the Griess reaction while TNF-α levels were measured by ELISA.
(§2) To gauge anti-inflammatory action, primary microglial cultures will be treated with lipopolysaccharide, which elicits a robust inflammatory response from these cells. Compounds that are effective agonist stroke at delayed timepoints are able to block the LPS-induced inflammatory response in microglial cells. The inflammatory cytokine, TNF-α and nitric oxide are two inflammatory agents to be measured to determine anti-inflammatory action of the compound. […] Using these two in vitro screening methods, other compounds that will be useful in treating stroke will be discovered.
TNF-α ELISA-Capture antibody (#MAB510 anti-rat antibody TNF R&D biosysterns) will be diluted with 2 μg/ml in coating buffer and incubated at 4° C. overnight. The capture antibody will then coat a high protein binding 96 well plate. Each well of the 96 well plate will be aspirated and washed three times with wash buffer. […] During incubation, direct light will be avoided 50 μl of 1 M H2SO4 will be added to each well and optical density will be determined within 30 minutes using a microplate reader set at 450 nm.

The test system of experiment [2] is primary microglial cultures. The experiment is described as follows: LPS stimulated nitric oxide release, Griess reaction. The following applies: nitric oxide by Griess reaction. The experiment is classed as cell-based, rat. As for the experimental part: as §1, §2
Nitric Oxide Determination: The supematant from treated primary rat rnicrogiia cultures will be harvested, placed in 1.5 ml micro-centrifuge tubes and then centrifuged in a bench top micro-centrifuge at 13,000×g for 1 minute. The supernatant will be withdrawn and placed in a clean, labeled micro-centrifuge tube. Standards (between 100 μM and 1 μM) will be prepared by diluting stock 1 mM Sodium Nitrite, contained in the kit, with DMEM in 1.5 ml micro centrifuge tubes. […] The absorbance at 458 nm will be measured in a spectrophotometer capable of reading 96 well plates.
(In general: Nitrite, measured by Griess reagent, commonly stands in for NO production.)

Each structure is given as a SMILES string.

With `Cc1ccccc1N=C(N)Nc1ccccc1C` [DTG], the “LPS stimulated TNF-α release” value in experiment [1] was “dose dependently reduced”. In addition, the “LPS stimulated nitric oxide release” value in experiment [2] is reported as “dose dependently reduced”.

The values above are taken from US20070160975A1, “Method for the Identification of Drugs to Treat Stroke at Delayed Timepoints” (UNIVERSITY OF SOUTH FLORIDA, priority 2006, published 2007).
